Measurements as given in patent US10279022B2, “Peptides and combination of peptides for use in immunotherapy against various cancers” (immatics biotechnologies GmbH, priority 2015, dated 2019).

Experiments:
HLA-A*24 = experiment: MHC binding assay by UV-ligand exchange and beta2m ELISA (HLA-A*24); parameters: species or system human; conditions: peptide exchange yield, binding to HLA-A*24; UV-ligand exchange, beta2m ELISA
Excerpt: Candidate peptides for T cell based therapies according to the present invention were further tested for their MHC binding capacity (affinity). The individual peptide-MHC complexes were produced by UV-ligand exchange, where a UV-sensitive peptide is cleaved upon UV-irradiation, and exchanged with the peptide of interest as analyzed. Only peptide candidates that can effectively bind and stabilize the peptide-receptive MHC molecules prevent dissociation of the MHC complexes. To determine the yield of the exchange reaction, an ELISA was performed based on the detection of the light chain (β2m) of stabilized MHC complexes. The assay was performed as generally described in Rodenko et al. (Rodenko et al., 2006).
96 well MAXISorp plates (NUNC) were coated over night with 2 ug/ml streptavidin in PBS at room temperature, washed 4× and blocked for 1 h at 37° C. in 2% BSA containing blocking buffer. Refolded HLA-A*02:01/MLA-001 monomers served as standards, covering the range of 15-500 ng/ml. Peptide-MHC monomers of the UV-exchange reaction were diluted 100 fold in blocking buffer. Samples were incubated for 1 h at 37° C., washed four times, incubated with 2 ug/ml HRP conjugated anti-β2m for 1 h at 37° C., washed again and detected with TMB solution that is stopped with […]. Absorption was measured at 450 nm. Candidate peptides that show a high exchange yield (preferably higher than 50%, most preferred higher than 75%) are generally preferred for a generation and production of antibodies or fragments thereof, and/or T cell receptors or fragments thereof, as they show sufficient avidity to the MHC molecules and prevent dissociation of the MHC complexes.

CD8+ T cells = experiment: In vitro T-cell priming assay (aAPCs loaded with peptide/MHC and anti-CD28), pMHC multimer readout; format: cell-based, human; conditions: for Wells positive [%]: in vitro immunogenicity of HLA class I peptides, peptide specific pMHC multimer staining after three stimulation cycles; for in vitro immunogenicity: Wells: positive wells, HLA-A*02 and HLA-A*24 peptides, healthy donors
Excerpt: In order to obtain information regarding the immunogenicity of the TUMAPs of the present invention, the inventors performed investigations using an in vitro T-cell priming assay based on repeated stimulations of CD8+ T cells with artificial antigen presenting cells (aAPCs) loaded with peptide/MHC complexes and anti-CD28 antibody.
In order to perform in vitro stimulations by artificial antigen presenting cells loaded with peptide-MHC complex (pMHC) and anti-CD28 antibody, the inventors first isolated CD8+ T cells from fresh HLA-A*02 leukapheresis products via positive selection using CD8 microbeads (Miltenyi Biotec, Bergisch-Gladbach, Germany) of healthy donors obtained from the University clinics Mannheim, Germany, after informed consent.
PBMCs and isolated CD8+ lymphocytes were incubated in T-cell medium (TCM) until use consisting of RPMI-Glutamax (Invitrogen, Karlsruhe, Germany) supplemented with 10% heat inactivated human AB serum (PAN-Biotech, Aidenbach, Germany), 100 U/ml Penicillin/100 μg/ml Streptomycin (Cambrex, Cologne, Germany), 1 mM sodium pyruvate (CC Pro, Oberdorla, Germany), 20 μg/ml Gentamycin (Cambrex). 2.5 ng/ml IL7 (PromoCell, Heidelberg, Germany) and 10 U/ml IL-2 (Novartis Pharma, Nurnberg, Germany) were also added to the TCM at this step.
Generation of pMHC/anti-CD28 coated beads, T-cell stimulations and readout was performed in a highly defined in vitro system using four different pMHC molecules per stimulation condition and 8 different pMHC molecules per readout condition.
The purified co-stimulatory mouse IgG2a anti human CD28 Ab 9.3 (Jung et al., 1987) was chemically biotinylated using Sulfo-N-hydroxysuccinimidobiotin as recommended by the manufacturer (Perbio, Bonn, Germany). Beads used were 5.6 μm diameter streptavidin coated polystyrene particles (Bangs Laboratories, Illinois, USA).
pMHC used for positive and negative control stimulations were A*0201/MLA-001 (peptide […] (SEQ ID NO. 303) from modified Melan-A/MART-1) and A*0201/DDX5-001 ([…] from DDX5, SEQ ID NO. 304), respectively.
800.000 beads/200 μl were coated in 96-well plates in the presence of 4×12.5 ng different biotin-pMHC, washed and 600 ng biotin anti-CD28 were added subsequently in a volume of 200 μl. Stimulations were initiated in 96-well plates by co-incubating 1×10^6 CD8+ T cells with 2×10^5 washed coated beads in 200 μl TCM supplemented with 5 ng/ml IL-12 (PromoCell) for 3 days at 37° C. Half of the medium was then exchanged by fresh TCM supplemented with 80 U/ml IL-2 and incubating was continued for 4 days at 37° C. This stimulation cycle was performed for a total of three times. For the pMHC multimer readout using 8 different pMHC molecules per condition, a two-dimensional combinatorial coding approach was used as previously described (Andersen et al., 2012) with minor modifications encompassing coupling to 5 different fluorochromes. Finally, multimeric analyses were performed by staining the cells with Live/dead near IR dye (Invitrogen, Karlsruhe, Germany), CD8-FITC antibody clone SK1 (BD, Heidelberg, Germany) and fluorescent pMHC multimers. For analysis, a BD LSRII SORP cytometer equipped with appropriate lasers and filters was used. Peptide specific cells were calculated as percentage of total CD8+ cells. Evaluation of multimeric analysis was done using the FlowJo software (Tree Star, Oregon, USA). In vitro priming of specific multimer+CD8+ lymphocytes was detected by comparing to negative control stimulations.

Row | Substance | Peptide exchange (HLA-A*24) | Wells positive [%] (CD8+ T cells) | also measured
1 | 166 (YYVESGKLF; listed as Homo sapiens) [compound 166] | ++++ (> = 75% = ++++) | – | –
2 | 177 (VYPWLGALL; listed as Homo sapiens) [compound 177] | ++++ (> = 75% = ++++) | – | –
3 | 35 (FLLPFSTVYL; listed as Homo sapiens) [compound 35] | – | + (<20% = +) | –
4 | 301 (AYKPGALTF; listed as Homo sapiens) [compound 301] | – | – | in vitro immunogenicity: Wells (CD8+ T cells): + (<20% = +)
5 | 230 (KLQNIMMLL; listed as Homo sapiens) [compound 230] | – | ++++ (> = 70% = ++++) | –
6 | 277 (VYQGHTALL; listed as Homo sapiens) [compound 277] | ++++ (> = 75% = ++++) | – | –
7 | 210 (IYTMIYRNL; listed as Homo sapiens) [compound 210] | ++++ (> = 75% = ++++) | – | –
8 | 217 (FFPPTRQMGLLF; listed as Homo sapiens) [compound 217] | ++++ (> = 75% = ++++) | – | –
9 | 278 (RYISDQLFTNF; listed as Homo sapiens) [compound 278] | ++++ (> = 75% = ++++) | – | –
10 | 149 (ILNTHITEL; listed as Homo sapiens) [compound 149] | – | + (<20% = +) | –
11 | 175 (YYEVHKELF; listed as Homo sapiens) [compound 175] | ++++ (> = 75% = ++++) | – | –
12 | 285 (HYPPVQVLF; listed as Homo sapiens) [compound 285] | – | + (<20% = +) | –
13 | 31 (TITETTVEV; listed as Homo sapiens) [compound 31] | – | + (<20% = +) | –
14 | 197 (EYSLFPGQVVI; listed as Homo sapiens) [compound 197] | – | + (<20% = +) | –
15 | 269 (YFIDSTNLKTHF; listed as Homo sapiens) [compound 269] | – | + (<20% = +) | –
16 | 187 (TYLRDQHFL; listed as Homo sapiens) [compound 187] | ++++ (> = 75% = ++++) | – | –
17 | 29 (YLLDPSITL; listed as Homo sapiens) [compound 29] | – | + (<20% = +) | –
18 | 268 (QYLGQIQHI; listed as Homo sapiens) [compound 268] | – | + (<20% = +) | –
19 | 90 (FLQDLEQRL; listed as Homo sapiens) [compound 90] | – | + (<20% = +) | –
20 | 26 (ALQEELTEL; listed as Homo sapiens) [compound 26] | – | + (<20% = +) | –
21 | 192 (SYALLTYMI; listed as Homo sapiens) [compound 192] | ++++ (> = 75% = ++++) | – | –
22 | 172 (TYTTVPRVAF; listed as Homo sapiens) [compound 172] | ++++ (> = 75% = ++++) | – | –
23 | 298 (RYLEGTSCI; listed as Homo sapiens) [compound 298] | – | – | in vitro immunogenicity: Wells (CD8+ T cells): + (<20% = +)
24 | 276 (VYGFQWRHF; listed as Homo sapiens) [compound 276] | ++++ (> = 75% = ++++) | – | –
25 | 271 (LYHDIFSRL; listed as Homo sapiens) [compound 271] | ++++ (> = 75% = ++++) | – | –
26 | 160 (VYTLDIPVL; listed as Homo sapiens) [compound 160] | ++++ (> = 75% = ++++) | – | –
27 | 18 (ILLDLTDNRL; listed as Homo sapiens) [compound 18] | – | + (<20% = +) | –

Row | Substance | Peptide exchange (HLA-A*24) | Wells positive [%] (CD8+ T cells) | also measured
28 | 218 (YYKSTSSAF; listed as Homo sapiens) [compound 218] | – | + (<20% = +) | –
29 | 5 (GIVAHIQEV; listed as Homo sapiens) [compound 5] | – | + (<20% = +) | –
30 | 274 (AYLHSHALI; listed as Homo sapiens) [compound 274] | ++++ (> = 75% = ++++) | – | –
31 | 272 (QYLQDAYSF; listed as Homo sapiens) [compound 272] | ++++ (> = 75% = ++++) | – | –
32 | 196 (LYIDRPLPYL; listed as Homo sapiens) [compound 196] | – | ++++ (> = 70% = ++++) | –
33 | 202 (VYWDSAGAAHF; listed as Homo sapiens) [compound 202] | ++++ (> = 75% = ++++) | – | –
34 | 207 (AYVVFVSTL; listed as Homo sapiens) [compound 207] | – | + (<20% = +) | –
35 | 227 (IFLDYEAGTLSF; listed as Homo sapiens) [compound 227] | ++++ (> = 75% = ++++) | – | –
36 | 141 (FLDKVLVAA; listed as Homo sapiens) [compound 141] | – | + (<20% = +) | –
37 | 173 (IYSWILDHF; listed as Homo sapiens) [compound 173] | ++++ (> = 75% = ++++) | – | –
38 | 228 (KYTSWYVAL; listed as Homo sapiens) [compound 228] | ++++ (> = 75% = ++++) | – | –
39 | 289 (KYPVEWAKF; listed as Homo sapiens) [compound 289] | ++++ (> = 75% = ++++) | – | –
40 | 23 (SLFSDEFKV; listed as Homo sapiens) [compound 23] | – | ++++ (> = 70% = ++++) | –
41 | 168 (KYQDILETI; listed as Homo sapiens) [compound 168] | ++++ (> = 75% = ++++) | – | –
42 | 186 (IFPQFLYQF; listed as Homo sapiens) [compound 186] | ++++ (> = 75% = ++++) | – | –
43 | 179 (MYDSYWRQF; listed as Homo sapiens) [compound 179] | ++++ (> = 75% = ++++) | – | –
44 | 211 (YYLEVGKTLI; listed as Homo sapiens) [compound 211] | ++++ (> = 75% = ++++) | – | –
45 | 216 (QYSSVFKSL; listed as Homo sapiens) [compound 216] | ++++ (> = 75% = ++++) | – | –
46 | 161 (IYLVSIPEL; listed as Homo sapiens) [compound 161] | ++++ (> = 75% = ++++) | – | –
47 | 282 (KFVDSTFYL; listed as Homo sapiens) [compound 282] | ++++ (> = 75% = ++++) | – | –
48 | 195 (TYSVSFPMF; listed as Homo sapiens) [compound 195] | ++++ (> = 75% = ++++) | – | –
49 | 184 (VFQNFPLLF; listed as Homo sapiens) [compound 184] | ++++ (> = 75% = ++++) | – | –
50 | 193 (RFHPTPLLL; listed as Homo sapiens) [compound 193] | ++++ (> = 75% = ++++) | – | –
51 | 181 (LYLDIINLF; listed as Homo sapiens) [compound 181] | ++++ (> = 75% = ++++) | – | –
52 | 280 (RYPDNLKHLYL; listed as Homo sapiens) [compound 280] | ++++ (> = 75% = ++++) | – | –
53 | 267 (KYMVYPQTF; listed as Homo sapiens) [compound 267] | ++++ (> = 75% = ++++) | – | –
